Source: ChEMBL document CHEMBL4725292 (J Med Chem, 2020)
Calls of active or inactive are those of the source. No cut-off for these calls is given here.

Key:
[1] = Inhibition of LPS-induced MCP1 production in PBMC (unknown origin); type: functional, tissue-based
[2] = target: Bromodomain adjacent to zinc finger domain protein 2A (Homo sapiens, UniProt Q9UIF9); test: Binding affinity to human partial length BAZ2A (M1792 to L1905 residues) expressed in bacterial expression system by BROMOscan assay
[3] = target: T1, ATPase family AAA domain-containing protein 2B (Homo sapiens, UniProt Q9ULI0); test: Binding affinity to human partial length ATAD2B (Q955 to R1082 residues) expressed in bacterial expression system by BROMOscan assay
T1 sequence (Q9ULI0 whole entry): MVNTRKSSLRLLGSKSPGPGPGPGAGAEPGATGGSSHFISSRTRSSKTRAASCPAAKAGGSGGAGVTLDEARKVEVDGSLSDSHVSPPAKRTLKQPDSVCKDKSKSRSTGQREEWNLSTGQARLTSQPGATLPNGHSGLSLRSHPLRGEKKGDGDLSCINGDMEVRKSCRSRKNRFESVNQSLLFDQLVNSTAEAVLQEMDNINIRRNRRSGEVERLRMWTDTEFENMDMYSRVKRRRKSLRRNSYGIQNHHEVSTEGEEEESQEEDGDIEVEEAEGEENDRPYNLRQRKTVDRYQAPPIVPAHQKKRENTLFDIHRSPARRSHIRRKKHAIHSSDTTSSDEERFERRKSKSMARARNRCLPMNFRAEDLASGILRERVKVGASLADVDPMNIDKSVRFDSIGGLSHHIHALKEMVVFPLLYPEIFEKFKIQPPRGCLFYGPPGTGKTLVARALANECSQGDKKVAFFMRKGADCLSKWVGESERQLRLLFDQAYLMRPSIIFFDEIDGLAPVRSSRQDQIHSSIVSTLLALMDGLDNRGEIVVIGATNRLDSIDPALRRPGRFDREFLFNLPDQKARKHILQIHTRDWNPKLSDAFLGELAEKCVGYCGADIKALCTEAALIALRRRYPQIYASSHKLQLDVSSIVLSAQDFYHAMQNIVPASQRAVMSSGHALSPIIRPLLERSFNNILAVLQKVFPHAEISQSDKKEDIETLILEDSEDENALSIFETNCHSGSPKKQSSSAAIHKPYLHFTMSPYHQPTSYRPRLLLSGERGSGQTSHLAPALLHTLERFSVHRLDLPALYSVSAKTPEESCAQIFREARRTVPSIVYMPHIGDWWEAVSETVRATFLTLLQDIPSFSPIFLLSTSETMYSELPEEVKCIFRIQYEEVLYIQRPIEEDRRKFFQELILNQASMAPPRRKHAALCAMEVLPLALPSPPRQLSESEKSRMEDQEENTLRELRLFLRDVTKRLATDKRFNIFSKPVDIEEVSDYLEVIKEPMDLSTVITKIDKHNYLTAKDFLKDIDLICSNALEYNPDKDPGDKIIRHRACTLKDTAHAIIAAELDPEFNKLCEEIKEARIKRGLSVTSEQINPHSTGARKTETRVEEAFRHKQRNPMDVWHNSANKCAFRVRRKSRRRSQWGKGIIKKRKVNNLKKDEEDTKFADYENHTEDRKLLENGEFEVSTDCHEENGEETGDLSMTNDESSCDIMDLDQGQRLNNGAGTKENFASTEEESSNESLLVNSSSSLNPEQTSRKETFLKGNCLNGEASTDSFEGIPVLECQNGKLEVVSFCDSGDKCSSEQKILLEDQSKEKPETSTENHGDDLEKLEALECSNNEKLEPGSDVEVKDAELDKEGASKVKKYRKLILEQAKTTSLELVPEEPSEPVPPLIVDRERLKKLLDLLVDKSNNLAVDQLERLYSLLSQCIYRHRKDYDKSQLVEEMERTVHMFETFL

Blood [4] = test: Inhibition of LPS-induced TNFalpha production in human whole blood preincubated for 30 mins followed by LPS addition and measured after overnight incubation by mesoscale assay; type: functional, tissue-based
[5] = Permeability of the compound in pH 7.4 phosphate buffer measured after 3 hrs by artificial membrane permeability assay based HPLC analysis; type: ADME; details: PAMPA, pH 7.4, read-out: permeability
Blood [6] = test: Inhibition of LPS-induced MCP1 production in human whole blood preincubated for 30 mins followed by LPS addition and measured after overnight incubation by mesoscale assay; type: functional, tissue-based
[7] = target: T2, Bromodomain-containing protein 2 (Homo sapiens, UniProt P25440); test: Binding affinity to human partial length BRD2 bromodomain 1 long isoform (K71 to N194 residues) expressed in bacterial expression system by BROMOscan assay
[8] = target: T3, Bromodomain-containing protein 3 (Homo sapiens, UniProt Q15059); test: Binding affinity to human partial length BRD3 bromodomain 1 (P24 to E144 residues) expressed in bacterial expression system by BROMOscan assay
[9] = target: T3, Bromodomain-containing protein 3; test: Binding affinity to human partial length BRD3 bromodomain 2 (G306 to P416 residues) expressed in bacterial expression system by BROMOscan assay
[10] = target: T4, Bromodomain testis-specific protein (Homo sapiens, UniProt Q58F21); test: Binding affinity to human partial length BRDT bromodomain 2 (K250 to E382 residues) expressed in bacterial expression system by bromoscan assay
[11] = target: T2, Bromodomain-containing protein 2; test: Binding affinity to full length BRD2 BD1 in human HuT78 cell lysates incubated for 45 mins by liquid chromatography-mass spectrometry based chemoproteomic binding assay; type: subcellular
[12] = target: T4, Bromodomain testis-specific protein; test: Binding affinity to full length BRDT BD1 in human HuT78 cell lysates incubated for 45 mins by liquid chromatography-mass spectrometry based chemoproteomic binding assay; type: subcellular
[13] = target: T4, Bromodomain testis-specific protein; test: Binding affinity to full length BRDT BD2 in human HuT78 cell lysates incubated for 45 mins by liquid chromatography-mass spectrometry based chemoproteomic binding assay; type: subcellular
[14] = target: Transcription initiation factor TFIID subunit 1-like (Homo sapiens, UniProt Q8IZX4); test: Binding affinity to human partial length TAF1L bromodomain 2 (Q1523 to D1654 residues) expressed in bacterial expression system by BROMOscan assay
[15] = target: Transcription initiation factor TFIID subunit 1 (Homo sapiens, UniProt P21675); test: Binding affinity to full length TAF1 in human HuT78 cell lysates incubated for 45 mins by liquid chromatography-mass spectrometry based chemoproteomic binding assay; type: subcellular
THP-1 = test: Antiproliferative activity against human THP-1 cells after 72 hrs by cell titer glo assay; type: functional, cell-based; details: THP-1, 72 h
[16] = Intrinsic clearance in rat hepatocytes at 0.5 uM measured up to 60 mins by LC-MS/MS analysis; type: ADME, cell-based, Hepatocyte; details: 1 h
[17] = Intrinsic clearance in mouse hepatocytes at 0.5 uM by LC-MS/MS analysis; type: ADME, cell-based, Hepatocyte
B cell [18] = test: Downregulation of IL-17A secretion in human B cells cocultured with human PBMC at 0.37 to 10 uM preincubated for 1 hr followed by anti-IgM and TCR stimulation and measured after 84 hrs by ELISA; type: functional, cell-based; details: dose microM 0.37-10, time 1.0 hrs
B cell [19] = test: Downregulation of IL-17F secretion in human B cells cocultured with human PBMC at 0.37 to 10 uM preincubated for 1 hr followed by anti-IgM and TCR stimulation and measured after 84 hrs by ELISA; type: functional, cell-based; details: dose microM 0.37-10, time 1.0 hrs

T2 sequence (P25440 whole entry, the tested form may be a part, canonical isoform): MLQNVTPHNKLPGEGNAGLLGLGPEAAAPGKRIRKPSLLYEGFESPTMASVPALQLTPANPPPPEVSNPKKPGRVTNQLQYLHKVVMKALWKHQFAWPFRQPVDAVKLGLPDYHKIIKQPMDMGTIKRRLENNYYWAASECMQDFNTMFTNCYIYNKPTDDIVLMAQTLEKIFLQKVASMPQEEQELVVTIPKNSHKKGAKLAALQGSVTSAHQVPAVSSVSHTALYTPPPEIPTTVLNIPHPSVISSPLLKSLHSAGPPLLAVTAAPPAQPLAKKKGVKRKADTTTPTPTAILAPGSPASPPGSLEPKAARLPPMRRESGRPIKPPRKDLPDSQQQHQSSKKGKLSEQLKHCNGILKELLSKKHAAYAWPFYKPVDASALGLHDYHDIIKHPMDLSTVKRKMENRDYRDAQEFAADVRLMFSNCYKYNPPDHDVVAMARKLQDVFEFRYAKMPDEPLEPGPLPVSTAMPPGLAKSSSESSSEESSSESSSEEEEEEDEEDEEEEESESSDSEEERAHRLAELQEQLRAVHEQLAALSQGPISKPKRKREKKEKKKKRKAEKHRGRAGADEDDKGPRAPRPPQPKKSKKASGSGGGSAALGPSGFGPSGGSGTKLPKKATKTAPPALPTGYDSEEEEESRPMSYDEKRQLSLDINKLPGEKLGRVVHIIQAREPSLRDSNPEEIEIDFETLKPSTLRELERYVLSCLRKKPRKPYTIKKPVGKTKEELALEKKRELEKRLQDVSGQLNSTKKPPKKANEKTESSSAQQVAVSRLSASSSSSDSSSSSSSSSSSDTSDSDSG
T3 sequence (Q15059 whole entry, the tested form may be a part): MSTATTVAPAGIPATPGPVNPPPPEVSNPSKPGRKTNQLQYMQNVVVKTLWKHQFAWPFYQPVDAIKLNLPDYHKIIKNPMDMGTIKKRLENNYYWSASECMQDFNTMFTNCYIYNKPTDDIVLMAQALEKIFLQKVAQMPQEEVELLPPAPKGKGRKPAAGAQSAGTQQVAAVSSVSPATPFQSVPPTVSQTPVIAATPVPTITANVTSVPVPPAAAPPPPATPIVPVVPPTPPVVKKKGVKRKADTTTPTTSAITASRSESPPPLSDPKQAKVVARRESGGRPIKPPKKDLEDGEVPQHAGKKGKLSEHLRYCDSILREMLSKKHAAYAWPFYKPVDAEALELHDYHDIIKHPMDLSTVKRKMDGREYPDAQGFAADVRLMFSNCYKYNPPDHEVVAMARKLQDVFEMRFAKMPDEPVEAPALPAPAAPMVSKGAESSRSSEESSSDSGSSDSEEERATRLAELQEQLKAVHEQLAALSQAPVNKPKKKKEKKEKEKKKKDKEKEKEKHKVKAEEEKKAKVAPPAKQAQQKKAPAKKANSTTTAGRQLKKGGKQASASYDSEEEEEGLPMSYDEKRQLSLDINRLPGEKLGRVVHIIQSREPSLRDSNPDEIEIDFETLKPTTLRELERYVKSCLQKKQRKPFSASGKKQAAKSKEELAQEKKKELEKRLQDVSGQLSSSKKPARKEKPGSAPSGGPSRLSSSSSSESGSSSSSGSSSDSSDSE
Chain of Bromodomain adjacent to zinc finger domain protein 2A (Q9UIF9 whole entry, the tested form may be a part): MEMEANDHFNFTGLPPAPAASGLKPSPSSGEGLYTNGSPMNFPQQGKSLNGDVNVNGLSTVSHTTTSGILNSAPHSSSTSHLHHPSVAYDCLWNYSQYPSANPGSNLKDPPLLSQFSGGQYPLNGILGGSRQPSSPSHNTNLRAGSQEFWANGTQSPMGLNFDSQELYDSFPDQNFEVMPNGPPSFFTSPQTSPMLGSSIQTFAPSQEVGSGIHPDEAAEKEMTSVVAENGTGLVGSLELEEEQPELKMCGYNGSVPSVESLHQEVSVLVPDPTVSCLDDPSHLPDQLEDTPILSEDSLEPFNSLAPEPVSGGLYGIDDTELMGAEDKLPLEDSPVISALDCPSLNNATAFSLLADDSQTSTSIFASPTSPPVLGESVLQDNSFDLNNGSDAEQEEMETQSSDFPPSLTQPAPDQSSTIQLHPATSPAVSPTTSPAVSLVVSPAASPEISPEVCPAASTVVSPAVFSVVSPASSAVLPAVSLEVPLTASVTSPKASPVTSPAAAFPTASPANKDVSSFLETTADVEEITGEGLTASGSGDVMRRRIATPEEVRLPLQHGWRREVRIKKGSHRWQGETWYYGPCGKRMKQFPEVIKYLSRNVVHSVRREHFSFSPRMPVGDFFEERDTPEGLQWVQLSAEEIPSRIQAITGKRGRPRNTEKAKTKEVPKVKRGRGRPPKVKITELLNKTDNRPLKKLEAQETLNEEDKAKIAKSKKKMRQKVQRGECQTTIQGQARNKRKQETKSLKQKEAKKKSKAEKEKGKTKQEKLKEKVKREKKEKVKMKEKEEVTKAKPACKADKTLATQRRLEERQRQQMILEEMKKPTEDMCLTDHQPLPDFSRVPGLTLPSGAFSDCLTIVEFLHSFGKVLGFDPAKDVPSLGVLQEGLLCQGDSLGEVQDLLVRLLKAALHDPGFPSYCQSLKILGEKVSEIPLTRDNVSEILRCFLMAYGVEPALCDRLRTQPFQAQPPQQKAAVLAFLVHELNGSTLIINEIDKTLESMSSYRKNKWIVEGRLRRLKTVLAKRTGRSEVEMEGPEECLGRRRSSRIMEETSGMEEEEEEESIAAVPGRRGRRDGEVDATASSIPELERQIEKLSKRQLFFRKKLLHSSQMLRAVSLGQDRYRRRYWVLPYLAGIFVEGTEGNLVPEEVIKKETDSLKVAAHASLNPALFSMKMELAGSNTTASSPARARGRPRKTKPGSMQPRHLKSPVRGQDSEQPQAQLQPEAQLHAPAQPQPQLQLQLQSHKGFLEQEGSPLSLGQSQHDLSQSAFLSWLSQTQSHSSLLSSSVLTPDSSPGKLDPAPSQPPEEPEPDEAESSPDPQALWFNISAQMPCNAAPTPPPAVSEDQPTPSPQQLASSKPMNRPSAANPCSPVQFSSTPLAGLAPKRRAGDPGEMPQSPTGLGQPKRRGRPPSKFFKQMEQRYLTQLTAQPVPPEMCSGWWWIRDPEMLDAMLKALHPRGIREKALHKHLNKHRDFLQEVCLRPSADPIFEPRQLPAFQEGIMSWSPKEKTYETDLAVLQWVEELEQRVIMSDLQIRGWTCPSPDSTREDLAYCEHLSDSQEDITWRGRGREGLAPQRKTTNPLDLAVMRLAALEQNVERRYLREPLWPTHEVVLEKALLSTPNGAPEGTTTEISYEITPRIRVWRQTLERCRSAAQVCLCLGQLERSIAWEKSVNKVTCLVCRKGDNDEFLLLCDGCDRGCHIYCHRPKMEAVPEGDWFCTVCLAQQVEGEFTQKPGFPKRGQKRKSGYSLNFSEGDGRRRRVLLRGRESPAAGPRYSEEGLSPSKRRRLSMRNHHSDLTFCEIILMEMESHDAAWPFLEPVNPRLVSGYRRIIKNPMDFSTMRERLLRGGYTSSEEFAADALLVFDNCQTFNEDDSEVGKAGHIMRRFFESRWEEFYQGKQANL

Cc1cc2c(-c3ccco3)cnc(N[C@@H]3CCN(C)C[C@H]3C(=O)NC3CCCCC3)c2[nH]c1=O [GSK789]
IC50 [1]: 0.02 µM | Kd [2]: 15.8 µM | Kd [3]: 15.8 µM | IC50 (Blood [4]): 0.87 µM | Papp at 3 h [5]: 190 nm/s | IC50 (Blood [6]): 0.67 µM | Kd [7]: 0.02 µM | Kd [8]: 0.0158 µM | Kd [9]: 20 µM | Kd [10]: 20 µM | Kd [11]: 0.00398 µM | Kd [12]: 0.01 µM | Kd [13]: > 31.6 µM | Kd [14]: 0.398 µM | IC50 [15]: > 10 µM | IC50 (THP-1): 0.158 µM | CLH [16]: 14.88 mL/min/g | CLH [17]: 8.15 mL/min/g | Activity (B cell [18]): Active | Activity (B cell [19]): Active
